These results are taken from patent US5223486A, “Inhibition of cancer procoagulant” (University Research Corporation, priority 1991, dated 1993).

Experiment [1] has as its target T1, rabbit brain thromboplastin, a tissue factor (TF) standard (Oryctolagus cuniculus, UniProt P24055).
T1 construct: rabbit brain thromboplastin, a tissue factor (TF) standard; purchased Sigma Chemical Co. (St. Louis, MO); host or cells: rabbit brain
T1 sequence (P24055 33-292): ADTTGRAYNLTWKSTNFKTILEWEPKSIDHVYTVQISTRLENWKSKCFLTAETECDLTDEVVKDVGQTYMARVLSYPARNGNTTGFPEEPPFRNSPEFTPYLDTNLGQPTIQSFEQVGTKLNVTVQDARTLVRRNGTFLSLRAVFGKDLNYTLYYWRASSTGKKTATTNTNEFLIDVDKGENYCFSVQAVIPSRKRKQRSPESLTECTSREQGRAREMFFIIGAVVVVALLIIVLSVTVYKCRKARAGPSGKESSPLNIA
Description: one-stage plasma recalcification clotting time assay, TF control procoagulant. The class given is biochemical. The note with it: 30 min at 25° C.; for enhancement of TF activity (negative inhibition): 400 μM peptidyl sulfonium salt; for inhibition of TF: 200 μM peptidyl diazomethyl ketone. On the procedure: The procoagulant activity of the samples and the controls was measured in a one-stage plasma recalcification clotting time assay using a model 202A clot timer (Heller Laboratories, Santa Rose, CA). […] If the volume of the sample was too small, 0.05 ml of the sample was used with proportional reduction in the volume of the other reagents. […] These dilutions of RVV were used to calibrate the assay plasma and to verify linearity of the clotting times over the range of procoagulant activity.
(§1) The procoagulant activity of the samples was expressed as clotting time in seconds or as the percent activity, calculated as the percent reduction of clotting time (CT) from the corresponding buffer blank [(blank time (sec)-sample clotting time (sec))/ blank time (sec)]×100. The percent inhibition of the control and experimental procoagulants by the peptidyl diazomethyl ketone and peptidyl sulfonium salt inhibitors was expressed as the percent increase in the clotting time compared with the uninhibited sample [(inhibited CT-uninhibited CT)/uninhibited CT]×100.
(§2) Papain, a factor X activator and cysteine proteinase standard, RVV (Russell's viper venom) and rabbit brain thromboplastin, a tissue factor (TF) standard, were purchased from Sigma Chemical Co. (St. Louis, MO). To determine the effect of the peptidyl diazomethyl ketone and peptidyl sulfonium salt inhibitors on CP, the control procoagulants (Papain, RVV and TF), and the assay plasma system, the procoagulant activity of the samples and controls was analyzed with and without the addition of different concentrations of the inhibitors. […] Peptidyl diazomethyl ketone inhibitors were incubated with the procoagulant samples at a final concentration of 400 μM, 200 μM, 100 μM, 10 μM and 1 μM. Peptidyl sulfonium salt inhibitors were incubated with the samples at a final concentration of 800 μM, as well as the same concentrations as the diazomethyl ketones. At the end of the inhibition incubation, each sample was analyzed in the coagulation assay.
Each CP or control sample was adjusted to a concentration such that the procoagulant activity reduced the clotting time of the blank assay plasma from 10% to 30%, within the linear range of the assay (Gordon et al. (1979) J. Natl. Cancer Inst. 62:773-776).

The test system of experiment [2] is RVV (Russell's viper venom). Description: one-stage plasma recalcification clotting time assay, RVV control procoagulant. In kind it is biochemical. The note with it: 30 min at 25° C.; for effect on activity of RVV: 400 μM peptidyl sulfonium salt; for percent inhibition of RVV (negative = slight activation): 200 μM peptidyl diazomethyl ketone. On the procedure:
(§3) If the volume of the sample was too small, 0.05 ml of the sample was used with proportional reduction in the volume of the other reagents. […] These dilutions of RVV were used to calibrate the assay plasma and to verify linearity of the clotting times over the range of procoagulant activity.
as §1, §2

The target in experiment [3] is T2, papain (Carica papaya, UniProt P00784).
T2 construct: purchased Sigma Chemical Co. (St. Louis, MO)
T2 sequence (P00784 134-345): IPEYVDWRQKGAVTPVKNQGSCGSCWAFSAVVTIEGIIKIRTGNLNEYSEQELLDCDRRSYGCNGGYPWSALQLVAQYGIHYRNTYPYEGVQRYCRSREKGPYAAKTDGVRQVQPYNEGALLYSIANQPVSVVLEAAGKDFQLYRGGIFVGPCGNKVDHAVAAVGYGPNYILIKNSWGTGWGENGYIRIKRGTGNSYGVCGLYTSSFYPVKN
The class given is biochemical. The note with it: 30 min at 25° C. How it is done: as §3, §1, §2

Experiment [4] has as its system cancer procoagulant (CP). Put plainly: one-stage plasma recalcification clotting time assay, inhibition of CP procoagulant activity. The class given is biochemical, rabbit. To be noted: for percent inhibition of CP: 30 min at 25° C.
In experiment [5] the target is cathepsin L (Homo sapiens, UniProt P07711). The note with it: cited from earlier work.
Chain of cathepsin L (Homo sapiens, UniProt P07711) (P07711 114-333, species assumed): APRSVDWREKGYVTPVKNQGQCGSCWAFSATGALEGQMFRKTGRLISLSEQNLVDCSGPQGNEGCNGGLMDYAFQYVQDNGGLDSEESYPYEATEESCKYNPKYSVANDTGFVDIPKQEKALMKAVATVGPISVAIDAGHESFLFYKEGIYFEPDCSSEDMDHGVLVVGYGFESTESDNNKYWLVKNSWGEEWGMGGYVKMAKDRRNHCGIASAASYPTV
Experiment [6] has as its system small cell carcinoma of the lung. To be noted: patients with small cell carcinoma of the lung; cited from earlier work.
The subject of experiment [7] is cancer procoagulant (CP). The class given is biochemical, human. On the procedure: Fresh human placenta was obtained from the delivery deck, the amnion-chorion membranes were removed from the placental tissue and extracted in 3 to 4 changes of 20 mM veronal buffer (pH 7.4) as described in Gordon et al. (1985) Blood 66:1261-1265. The extracts were purified over an anti-Cp antibody affinity column. The purified CP sample was assayed for procoagulant activity by measuring clotting time of normal and factor VII deficient citrated plasma. […] To assure that there was no tissue factor-factor VIIa activity in the preparation, 5 μl (1.3 mg/ml) of rabbit polyclonal anti-tissue factor antibody was added to the sample and incubated for 30 min. at 25° C.

The subject of experiment [8] is control procoagulants (TF, RVV and Papain). Put plainly: effect on the coagulation controls and the assay plasma. In kind it is biochemical. The note with it: compared with D1-D3 results of FIG. 1. On the procedure: The procoagulant activity of the samples and the controls was measured in a one-stage plasma recalcification clotting time assay using a model 202A clot timer (Heller Laboratories, Santa Rose, CA). […]. If the volume of the sample was too small, 0.05 ml of the sample was used with proportional reduction in the volume of the other reagents. […]. These dilutions of RVV were used to calibrate the assay plasma and to verify linearity of the clotting times over the range of procoagulant activity.
as §1
Papain, a factor X activator and cysteine proteinase standard, RVV (Russell's viper venom) and rabbit brain thromboplastin, a tissue factor (TF) standard, were purchased from Sigma Chemical Co. (St. Louis, MO). To determine the effect of the peptidyl diazomethyl ketone and peptidyl sulfonium salt inhibitors on CP, the control procoagulants (Papain, RVV and TF), and the assay plasma system, the procoagulant activity of the samples and controls was analyzed with and without the addition of different concentrations of the inhibitors. […]; there was no effect of these solvents on the assay plasma activity. Preliminary experiments evaluated the time (15, 30 and 50 min) and temperature (25° C. and 37° C.) of the inhibition reaction; 30 min at 25° C. was selected as the optimum conditions and was used for the subsequent studies. […] At the end of the inhibition incubation, each sample was analyzed in the coagulation assay. […]

Experiment [9] deals with clostripain (Hathewaya histolytica, UniProt P09870). To be noted: cited from earlier work.
Chain of clostripain (P09870 191-526): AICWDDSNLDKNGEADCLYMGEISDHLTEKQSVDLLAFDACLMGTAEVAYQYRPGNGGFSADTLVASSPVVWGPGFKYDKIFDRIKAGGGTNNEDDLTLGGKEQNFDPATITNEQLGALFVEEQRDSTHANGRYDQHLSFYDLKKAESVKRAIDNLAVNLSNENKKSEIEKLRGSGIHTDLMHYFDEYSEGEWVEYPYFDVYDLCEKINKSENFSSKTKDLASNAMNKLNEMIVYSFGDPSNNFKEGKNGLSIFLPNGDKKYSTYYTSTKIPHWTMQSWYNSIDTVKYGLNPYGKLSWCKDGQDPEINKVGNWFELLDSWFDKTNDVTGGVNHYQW
Chain of clostripain (P09870 51-181): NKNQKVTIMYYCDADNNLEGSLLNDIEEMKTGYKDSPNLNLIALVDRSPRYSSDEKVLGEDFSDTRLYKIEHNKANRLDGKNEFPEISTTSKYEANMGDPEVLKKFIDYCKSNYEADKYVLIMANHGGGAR
For experiment [10], the system named is isolated rat hepatocytes. The note with it: 10^-5 M; cited from earlier work.
In experiment [11] the test system is cathepsin L. The note with it: cathepsin B from rat and human; substrate Z-Phe-Arg-4-methyl-7-coumarylamide; cited from earlier work.
Experiment [12] addresses cathepsin B (Homo sapiens, UniProt P07858). To be noted: cited from earlier work.
Experiment [13] deals with nonsmall cell lung cancer. To be noted: patients with nonsmall cell lung cancer limited to one hemithorax; cited from earlier work.

Like-named read-outs stand apart in the source and are kept apart here. Where a SMILES comes first, the peptide text is derived from it. [ ]: non-standard residue; d: D form. The star is where a group is joined. ξ: configuration not given here. ξF = NC(Cc1ccccc1)C(=O)O; Cbz = O=C(OCc1ccccc1)*; ξV = CC(C)C(N)C(=O)O; CHN2 = [N-]=[N+]=C*; ξP = O=C(O)C1CCCN1; tBu = CC(C)(C)*

Z-Phe-Ala-CH2 -S^+ (CH3)2 bromide [S1]: the “enhancement of TF activity (negative inhibition)” value in [1] turned out to be 5%. Further, the “effect on activity of RVV” value in experiment [2] is recorded as “Neither S1 nor S2 affected the activity of RVV”. Further, the “percent inhibition of papain” value is 55% in experiment [3] (10 μM inhibitor), “completely inhibited” in experiment [3] (100 μM inhibitor) and “completely inhibited” in [3] (200 μM inhibitor). The “percent inhibition of CP” value in [4] (10 μM inhibitor) is recorded as “no inhibition”; in [4] (100 μM inhibitor), 26%; in [4] (200 μM inhibitor) it was 51%; in [4] (400 μM inhibitor), 62%.

Take `CC(C)(C)Oc1ccc(C[C@H](NC(=O)[C@H](Cc2ccccc2)NC(=O)OCc2ccccc2)C(=O)C=[N+]=[N-])cc1` [Z-Phe-Tyr(O-t-Bu) diazomethyl ketone] (Cbz-Phe-Tyr(tBu)-CHN2): the “rate of inactivation of cathepsin L relative to cathepsin B” value in [5] was 2.5×10^4.

Regarding Z-Phe-Lys-CH2 -S^+ (CH3)2 bromide [S2], the “enhancement of TF activity (negative inhibition)” value in experiment [1] was 8%. Further, the “effect on activity of RVV” value in experiment [2] is recorded as “Neither S1 nor S2 affected the activity of RVV”. Moreover, the “percent inhibition of papain” value is reported as 20% in experiment [3] (10 μM inhibitor), “almost the same effect” in experiment [3] (100 μM inhibitor) and “almost the same effect” in experiment [3] (200 μM inhibitor). The “percent inhibition of CP” value is recorded as “no inhibition” in experiment [4] (10 μM inhibitor), 33% in [4] (100 μM inhibitor), 54% in experiment [4] (200 μM inhibitor) and 72% in experiment [4] (400 μM inhibitor).

For `CC(=O)CC(c1ccccc1)c1c(O)c2ccccc2oc1=O` (stereo not shown) [Warfarin], in [6], the survival result is recorded as “significant improvement” and the “time to first evidence disease progression” value is reported as “significant prolongation”.

Consider `NC(=O)CI` [iodacetamide, iodoacetamide], for which the “inhibition of procoagulant activity of purified CP” value in [7] is given as “all the procoagulant activity was inhibited”.

In the case of `CC(NC(=O)C(C)NC(=O)OCc1ccccc1)C(=O)C=[N+]=[N-]` (stereo not shown) [D6, Z-Ala-Ala diazomethyl ketone], in [8], the “effect on the coagulation controls and the assay plasma” value is “essentially the same results”. The “percent inhibition of papain” value in [3] (100 μM inhibitor) came out at 31%. Also, the “percent inhibition of CP” value in [4] (100 μM inhibitor) is on record as 92%.

Regarding `C[C@H](NC(=O)[C@H](Cc1ccccc1)NC(=O)OCc1ccccc1)C(=O)C=[N+]=[N-]` [D1, Z-Phe-Ala diazomethyl ketone], the reactivity toward clostripain result in [9] is given as “absolutely inert”. Besides, the “inhibition of protein synthesis” value in experiment [10] is given as 21%. Besides, the “inhibition of TF” value in experiment [1] is “no significant inhibition”. The “percent inhibition of RVV (negative = slight activation)” value (“percent inhibition of RVV” below) in experiment [2] is -10% to -13%. In addition, the “affinity for cathepsin L relative to cathepsin B” value in [11] is given as “about 2000 fold”. For the same compound, the “percent inhibition of papain” value in experiment [3] (100 μM inhibitor) is listed as 85%; in experiment [3] (200 μM inhibitor), 97%. Besides, the “percent inhibition of CP” value in experiment [4] (100 μM inhibitor) stood at 68%. In addition, in [4] (same concentration (100 μM), same peptide), the “inhibition of CP by D1 relative to S1 (times greater)” value is listed as around 3 times.

Take `[N-]=[N+]=CC(=O)CNC(=O)C(Cc1ccccc1)NC(=O)OCc1ccccc1` (stereo not shown) [D2, Z-Phe-Gly diazomethyl ketone] (Cbz-[ξF]-Gly-CHN2): in [1], the “inhibition of TF” value is given as “no significant inhibition”. Besides, in experiment [2], the “percent inhibition of RVV” value is given as -10% to -13%. The “percent inhibition of papain” value was 88% in [3] (100 μM inhibitor) and 97% in experiment [3] (200 μM inhibitor). Moreover, the “percent inhibition of CP” value in experiment [4] (100 μM inhibitor) turned out to be 97%.

Consider `CC(NC(=O)OCc1ccccc1)C(=O)NC(C)C(=O)N1CCCC1C(=O)C=[N+]=[N-]` (stereo not drawn) [D5, Z-Ala-Ala-Pro diazomethyl ketone] (Cbz-Ala-Ala-Pro-CHN2; configuration not given here), for which the “effect on the coagulation controls and the assay plasma” value in [8] is “essentially the same results”. Also, in experiment [3] (100 μM inhibitor), the “percent inhibition of papain” value was 2%. Besides, the “percent inhibition of CP” value in experiment [4] (100 μM inhibitor) was around 62%.

Take `[N-]=[N+]=CC(=O)C(CCCCN)NC(=O)OCc1ccccc1` (stereo not shown) [Z-Lys diazomethyl ketone]: in [12], the “inhibition of cathepsin B” value is reported as “powerful inhibitor”.

With `OCCN(CCO)c1nc(N2CCCCC2)c2nc(N(CCO)CCO)ncc2n1` [RA-233, mopidamol], the survival entry in [13] is given as “statistically significant prolongation of survival”.

As for `CC(C)C(NC(=O)CNC(=O)CNC(=O)OCc1ccccc1)C(=O)C=[N+]=[N-]` (stereo not drawn) [D4, Z-Gly-Gly-Val diazomethyl ketone] (Cbz-Gly-Gly-[ξV]-CHN2), the “effect on the coagulation controls and the assay plasma” value in [8] was “essentially the same results”. Further, the “percent inhibition of papain” value in [3] (100 μM inhibitor) is on record as 2%. For the same compound, in experiment [4] (100 μM inhibitor), the “percent inhibition of CP” value is “about 48%”.

HgCl2 [Hg^++]: the “inhibition of procoagulant activity of purified CP” value in experiment [7] (1 mM iodoacetamide in water, 0.1 mM HgCl2 in water) is “all the procoagulant activity was inhibited”.

With `[N-]=[N+]=CC(=O)CNC(=O)C1CCCN1C(=O)OCc1ccccc1` (stereo not shown) [D3, Z-Pro-Gly diazomethyl ketone] (Cbz-[ξP]-Gly-CHN2), in experiment [1], the “inhibition of TF” value was “no significant inhibition”. In addition, the “percent inhibition of RVV” value in experiment [2] is -10% to -13%. Also, the “percent inhibition of papain” value turned out to be 15% in experiment [3] (100 μM inhibitor) and 88% in experiment [3] (200 μM inhibitor).
